Experimental data as given in US20180010188A1, “METHOD FOR DETECTING NONSENSE-MEDIATED RNA DECAY” (The Regents of the University of California, priority 2016, published 2018).

Test system: NMD and non-NMD isoforms of Srsf11, Ptbp2, Tra2b, Hnrnpl and Psd-95 (cellular NMD activity)
Experiment: RT-qPCR of endogenous NMD and non-NMD isoforms to monitor cellular NMD activity
Type: cell-based, mouse
Text: In our method, we measure the individual abundance of NMD-sensitive isoforms and that of their non-NMD counterparts via quantitative real-time PCR (qPCR). The NMD isoforms are first examined for differential expression between a treatment and a control condition. An increase in a NMD isoform may be due to NMD inhibition, transcriptional activation or a change in alternative splicing favoring the NMD isoform. These three scenarios can be distinguished by examining the expression of the non-NMD counterparts. Genuine NMD regulation, transcriptional activation and alternative splicing regulation would lead to no change, upregulation and down-regulation of the NMD-insensitive isoforms, respectively (FIG. 6A).
One technical difficulty of our method is designing RT-qPCR primers specific to the cassette exon-skipping isoform, whose entire sequence is contained in the inclusion isoform. To specifically detect an inclusion isoform, we designed a primer entirely annealing to the cassette exon (exon B in FIG. 1A). For the exclusion isoform, junction primers annealing to the exon-skipping junction appear to be the only choices. This can be either a reverse primer (FIG. 1A) with its 5′ portion matching the downstream constitutive exon (exon C) and its 3′ portion matching the upstream constitutive exon (exon A) or a forward primer (not shown) with its 5′ and 3′ portions matching the upstream and downstream exons, respectively. The challenge is herein illustrated with reverse primers but also applies to forward primers. Many exon-skipping junction primers are able to amplify the inclusion isoforms (FIGS. 7A-D). The longer the 3′ portion of the junction primer annealing to the upstream constitutive exon, the easier the primer amplifies the inclusion transcripts (FIG. 7B). Some exon-skipping junction primers with 3′ portions as short as six nucleotides, as we've observed, can still anneal to and detect the inclusion isoform at 55-60° C., albeit at a lower efficiency than its detection of the exclusion isoform. On the other hand, a longer 5′ portion and a shorter 3′ portion increase the possibility of the primer annealing to the exon B-exon C junction because of the sequence similarity around 5′ splice sites (FIGS. 7C-D). We therefore had to identify NMD-associated cassette exons containing a 3′ end unlike that of its upstream exon. We then screened multiple exon-skipping junction primers for one that amplified only the exclusion isoform and not the inclusion isoform. All primer pairs were tested and confirmed for their specificity, RT-qPCR efficiency and linear dynamic ranges (FIG. 10). Finally, two stably expressed housekeeping genes, Gapdh and Sdha, were used as internal controls for normalization by geometric averaging (Vandesompele et al., 2002. Genome Biol 3: RESEARCH0034).
Because our method can be used on its own can to infer NMD regulation with a low false positive rate, one of its applications is unbiased screening for changes in cellular NMD activity. We screened a small panel of widely used pharmacological inhibitors for their effects on NMD. The expression of both the NMD and non-NMD isoforms of Ptbp2, Srsf11, Tra2b, Hnrnpl and Psd-95 were simultaneously measured before and after drug treatment. When the levels of all of the NMD isoforms were altered by a chemical in the same direction, the expression of the NMD and non-NMD isoforms under the treatment and control conditions was then subjected to ANOVA analysis to determine differential regulation of the two isoforms. We were interested in drugs that affected the NMD isoforms across the board and more strongly than the non-NMD counterparts. With this criterion, we identified thapsigargin as having potent activity in blocking cellular NMD.
Neuro-2a (N2a) cells were maintained in N2a complete media consisting of L-glutamine-free Dulbecco's modified Eagle's medium (DMEM), 10% FBS and 1× GlutaMAX at 37° C. […]

[1] = N2a cells, 5 hours post-treatment

| Structure (SMILES) | concentration sufficient to revert the effect of thapsigargin on the NMD isoforms (N2a cells, thapsigargin plus GSK2606414, Psd-95, Ptbp2, Tra2b) [µM] | upregulation of the NMD isoforms in thapsigargin-treated cells (dose-dependent, 1 hour preincubation) | NMD activity in DMSO-treated cells (without thapsigargin) | NMD repression at 0.01 μM (0.01 μM, 5 hours) | isoform upregulation relative to maximal upregulation (0.02 μM) | earliest time of increase of NMD isoform transcripts (0.2 μM thapsigargin, N2a cells) [h] | increase of non-NMD isoforms of Ptbp2 and Psd-95 (0.2 μM, at 5 hours) | non-NMD isoform levels of Srsf11, Tra2b and Hnrnpl (0.2 μM, at 5 hours) | fraction of full NMD inhibition detectable (1 hour post-treatment, full inhibition at 5 hours) | concentration at which repressive effect on NMD started to plateau (N2a cells) [µM] | concentration at which Xbp1s splicing and NMD repression plateaued [1] | lowest concentration at which NMD inhibition was observed [1] [µM] | lowest concentration inhibiting NMD [1] [nM] | NMD inhibition at concentrations above 0.2 μM (above 0.2 μM (data not shown)) | NMD isoforms in siPerk-pretreated cells (thapsigargin after 48 hours siPerk) |
| --- | --- | --- | --- | --- | --- | --- | --- | --- | --- | --- | --- | --- | --- | --- | --- |
| Cn1cc(-c2ccc3c(c2)CCN3C(=O)Cc2cccc(C(F)(F)F)c2)c2c(N)ncnc21 [GSK2606414] | ≥ 0.1 | effectively reversed | did not affect | – | – | – | – | – | – | – | – | – | – | – | – |
| C/C=C(/C)C(=O)O[C@H]1C(C)=C2[C@H]([C@@H]1OC(=O)CCCCCCC)[C@@](C)(OC(C)=O)C[C@H](OC(=O)CCC)[C@@]1(O)[C@H]2OC(=O)[C@@]1(C)O [thapsigargin] | – | – | – | little NMD repression | about 20% | 1 | around 1.8 fold | barely changed | 20-30% | ≥ 0.2 | ≥ 0.1 | 0.02 | 20 | did not further increase NMD inhibition | none of the NMD isoforms were stimulated |
